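Test compounds were applied to cells in 96-well plates for 48 hours at 5 doses. The concentration for 50% growth inhibition is given as GI50. Definition used: TGI = concentration required for complete inhibition of growth.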
What was measured:
Test in all cases: growth of human tumour cells (NCI), 48 h
A549 NSCLC = tested on: A549 NSCLC
COLO 205 colon = tested on: COLO 205 colon
KM12 colon = tested on: KM12 colon
M14 melanoma = tested on: M14 melanoma
MDA-MB-231 breast = tested on: MDA-MB-231 breast
OVCAR-5 ovarian = tested on: OVCAR-5 ovarian
SK-MEL-5 melanoma = tested on: SK-MEL-5 melanoma
U251 CNS = tested on: U251 CNS
UACC-257 melanoma = tested on: UACC-257 melanoma
HS 578T breast = tested on: HS 578T breast

COc1ccc(Cn2c(Br)c3c(c2-c2cc(OC)c(OC)c(OC)c2)CCc2sc(NC(C)=O)nc2-3)cc1
GI50 (A549 NSCLC): 3.92 µM
TGI (A549 NSCLC): > 100 µM
GI50 (COLO 205 colon): 2.53 µM
TGI (COLO 205 colon): 5.78 µM
GI50 (KM12 colon): 4.03 µM
TGI (KM12 colon): > 100 µM
GI50 (M14 melanoma): 3.57 µM
TGI (M14 melanoma): > 100 µM
GI50 (MDA-MB-231 breast): 3.22 µM
TGI (MDA-MB-231 breast): 43.6 µM
GI50 (OVCAR-5 ovarian): 4.39 µM
TGI (OVCAR-5 ovarian): > 100 µM
GI50 (SK-MEL-5 melanoma): 2.82 µM
TGI (SK-MEL-5 melanoma): 21.4 µM
GI50 (U251 CNS): 3.69 µM
TGI (U251 CNS): > 100 µM
GI50 (UACC-257 melanoma): 98.5 µM
TGI (UACC-257 melanoma): > 100 µM

Nc1c(C(=O)Nc2ccccc2)sc2nc3c(cc12)CCCC3
GI50 (A549 NSCLC): 0.546 µM
TGI (A549 NSCLC): 39.4 µM
GI50 (COLO 205 colon): 1.24 µM
TGI (COLO 205 colon): 13.8 µM
GI50 (HS 578T breast): 2.73 µM
TGI (HS 578T breast): > 100 µM
GI50 (KM12 colon): 0.485 µM
TGI (KM12 colon): > 100 µM
GI50 (M14 melanoma): 0.487 µM
TGI (M14 melanoma): > 100 µM
GI50 (MDA-MB-231 breast): 3.93 µM
TGI (MDA-MB-231 breast): > 100 µM
GI50 (OVCAR-5 ovarian): 18.6 µM
TGI (OVCAR-5 ovarian): > 100 µM
GI50 (SK-MEL-5 melanoma): 0.365 µM
TGI (SK-MEL-5 melanoma): 2.24 µM
GI50 (U251 CNS): 0.473 µM
TGI (U251 CNS): 34 µM

CCc1ccc(Nc2cc(C)nc3nc(C)nn23)cc1
GI50 (A549 NSCLC): 45.4 µM
TGI (A549 NSCLC): > 100 µM
GI50 (COLO 205 colon): 66.9 µM
TGI (COLO 205 colon): > 100 µM
GI50 (HS 578T breast): 39.3 µM
TGI (HS 578T breast): > 100 µM
GI50 (KM12 colon): 70.6 µM
TGI (KM12 colon): > 100 µM
GI50 (MDA-MB-231 breast): 31.4 µM
TGI (MDA-MB-231 breast): > 100 µM
GI50 (OVCAR-5 ovarian): > 100 µM
TGI (OVCAR-5 ovarian): > 100 µM
GI50 (SK-MEL-5 melanoma): 32.9 µM
TGI (SK-MEL-5 melanoma): > 100 µM
GI50 (U251 CNS): 75.2 µM
TGI (U251 CNS): > 100 µM
GI50 (UACC-257 melanoma): > 100 µM
TGI (UACC-257 melanoma): > 100 µM

CCC(/C(=N\Nc1c(Cl)cc(Cl)cc1Cl)c1ccccc1)n1ccnc1C (centres undefined)
TGI (A549 NSCLC): 38.1 µM
TGI (COLO 205 colon): 24.1 µM
TGI (KM12 colon): 26.8 µM
TGI (M14 melanoma): 28.6 µM
TGI (OVCAR-5 ovarian): 21.2 µM
TGI (SK-MEL-5 melanoma): 21.2 µM
TGI (U251 CNS): 28.4 µM
TGI (UACC-257 melanoma): 28.3 µM

CC(C)CC(=O)NS(=O)(=O)c1ccccc1
TGI (A549 NSCLC): > 100 µM
TGI (COLO 205 colon): > 100 µM
TGI (KM12 colon): > 100 µM
TGI (M14 melanoma): > 100 µM
TGI (OVCAR-5 ovarian): > 100 µM
TGI (U251 CNS): > 100 µM
TGI (UACC-257 melanoma): > 100 µM

Oc1cc2c(cc1O)-c1[nH]ncc1CC2
TGI (A549 NSCLC): > 100 µM
TGI (COLO 205 colon): 66.5 µM
TGI (KM12 colon): > 100 µM
TGI (M14 melanoma): > 100 µM
TGI (OVCAR-5 ovarian): > 100 µM
TGI (SK-MEL-5 melanoma): > 100 µM
TGI (U251 CNS): 44.6 µM
TGI (UACC-257 melanoma): > 100 µM

O=C(c1ccc2c3c(ccc(C(=O)C(F)(F)F)c13)CC2)C(F)(F)F
TGI (A549 NSCLC): > 100 µM
TGI (COLO 205 colon): 44.1 µM
TGI (KM12 colon): > 100 µM
TGI (M14 melanoma): > 100 µM
TGI (OVCAR-5 ovarian): > 100 µM
TGI (U251 CNS): > 100 µM
TGI (UACC-257 melanoma): > 100 µM

CCN(CC)CCOc1ccc(C(=C2CCCCC2)c2ccc(OCCN(CC)CC)cc2)cc1
TGI (A549 NSCLC): 3.16 µM
TGI (COLO 205 colon): 2.7 µM
TGI (KM12 colon): 2.57 µM
TGI (M14 melanoma): 2.91 µM
TGI (OVCAR-5 ovarian): 3.37 µM
TGI (SK-MEL-5 melanoma): 2.95 µM
TGI (U251 CNS): 3.1 µM
TGI (UACC-257 melanoma): 3.32 µM

CC(=O)OCC1OC(Sc2ccccn2)C=CC1OC(C)=O (centres undefined)
TGI (A549 NSCLC): > 100 µM
TGI (COLO 205 colon): > 100 µM
TGI (KM12 colon): > 100 µM
TGI (M14 melanoma): > 100 µM
TGI (OVCAR-5 ovarian): > 100 µM
TGI (SK-MEL-5 melanoma): > 100 µM
TGI (U251 CNS): > 100 µM
TGI (UACC-257 melanoma): > 100 µM

Cc1cccc(NC(=O)CC#N)c1Cl
TGI (A549 NSCLC): > 100 µM
TGI (KM12 colon): > 100 µM
TGI (M14 melanoma): > 100 µM
TGI (U251 CNS): > 100 µM
TGI (UACC-257 melanoma): > 100 µM

CC1=CC2C(C(C)C)CC1C1C(=O)OC(=O)C21 (centres undefined)
TGI (A549 NSCLC): > 100 µM
TGI (COLO 205 colon): > 100 µM
TGI (HS 578T breast): > 100 µM
TGI (M14 melanoma): > 100 µM
TGI (MDA-MB-231 breast): > 100 µM
TGI (OVCAR-5 ovarian): > 100 µM
TGI (SK-MEL-5 melanoma): > 100 µM
TGI (U251 CNS): > 100 µM
TGI (UACC-257 melanoma): > 100 µM

— PubChem BioAssay (NCI)
